# Data published in publication PMC12040169 (PLOS Biology, 2025).
# Assay: in vitro
# Conditions: human, hela cells, % viability
Structure (SMILES),"viability at 28.5 h, 10 µM [%]","viability at 28.5 h, 10 µM (bulk resorufin, single well) [%]"
Cc1nn(Cc2ccc(Cl)cc2)c(C)c1NC(=O)CCC(=O)O [CBK287051],88.5,
N#Cc1nc(/C=C/c2cccs2)oc1NCCCn1ccnc1 [CBK269455],84.1,
CC(C(=O)Nc1c(F)cc(F)cc1OC1CCNCC1)c1ccccc1 (stereo not shown) [CBK045896T],103,
CCOc1cc(NC2CCN(C(=O)OC(C)(C)C)CC2)ncn1 [CBK306288],89.6,
Cc1oc(NC(=O)CN(C)Cc2cccc(F)c2)c(C#N)c1C [CBK305609],90.9,
CC(CCc1ccccc1)NC(=O)CN1CCOCC1 (stereo not shown) [CBK268994],93,
Cn1c(=O)[nH]c(=O)c2[nH]c(CN3CCN(Cc4ccccc4)CC3)nc21 [CBK269592],98.5,
CC(C)CSc1nccnc1N1CCCC1 [CBK103683],97.7,
COc1ccc2oc(C(=O)NC(C)(C)CN3CCCCC3)cc2c1 [CBK282053],93.8,
O=c1[nH]nc2c(SCc3ccccc3)nccn12 [CBK288440],90.5,
CCN1CCC2CN(CCCC(c3ccc(F)cc3)c3ccc(F)cc3)CCN2C1=O (stereo not shown) [CBK024996],92.7,
CCc1nn(CC(=O)N(CC)CC)c(=O)c2cc3occc3n12 [CBK283656],91,
CCC(=O)N(C)C(CO)c1cc(OC)ccc1Br (stereo not shown) [CBK304156],95.9,
CCCC(=O)NC(c1ccccn1)C1CCC(CNC(C)=O)CC1 (stereo not shown) [CBK283080],102,
O=C(Nc1ccc(I)cc1C(=O)NCCN1CCOCC1)c1ccco1 [CBK266211],100,
Cn1c(NCc2ccco2)nc2c1c(=O)n(Cc1cccc(Br)c1)c(=O)n2C [CBK268863],79.8,
Cc1c(NCc2ccccn2)cccc1C(=O)O [CBK269651],86.9,
Cc1ccc(S(=O)(=O)N(C)CC(=O)Nc2ncc(C(F)(F)F)cc2Cl)cc1 [CBK266729],94.8,
Cc1ccc(-c2ncc(OCc3ccccc3)nc2N)c(C)c1 [CBK145129],90.6,
O=C1NC(=S)NC(=O)C1=Cc1ccc(-c2ccc([N+](=O)[O-])cc2Cl)o1 [CBK261820],,89.2
CC(C)(C)C1=CC2=NC3(CCC3)[C@@H]3C[C@@H](O)[C@@H](O)[C@@H]3N2O1 [CBK303243],104,
O=C(Nc1cccc(Oc2ccccc2)c1)c1ccc2[nH]ccc2c1 [CBK161728],97.5,

Structure (SMILES),"viability at 28.5 h, 10 µM [%]","viability at 28.5 h, 10 µM (bulk resorufin, single well) [%]"
CCN1CCC(CNS(=O)(=O)c2ccc(N3CCCC3=O)cc2)CC1 [CBK305663],101,
O=C(Oc1cccc2cccnc12)c1cc(S(=O)(=O)N2CCOCC2)ccc1Cl [CBK263210],91.3,
CS(=O)(=O)N1CC2(CCN(CCOCc3ccccc3)CC2)c2ccccc21 [CBK115458T],96.4,
Cc1cccc(OCC(C)NC(=O)N2CCCC2c2cnn(C)c2)c1 (stereo not shown) [CBK304100],91.6,
COc1cc2c(cc1OC)C1c3ccccc3NC(c3ccc(C)cc3)N1CC2 (stereo not shown) [CBK286195],72.7,
O=C(CSCc1c(Cl)cccc1Cl)Nc1ccc(S(=O)(=O)N2CCOCC2)cc1 [CBK266276],109,
O=C(c1cc2nc(-c3ccccc3)cc(-c3ccccc3)n2n1)N1CCN(C(=O)c2ccco2)CC1 [CBK269056],99.4,
O=c1[nH]c2ncc(-c3cccnc3)nc2n1Cc1ccc(Cl)cc1 [CBK064561],98.3,
CN1CCC(=NNC(=O)CN(c2cccc([N+](=O)[O-])c2)S(=O)(=O)c2ccccc2)CC1 [CBK262727],90.3,
COc1ccccc1CNC(=O)c1cnc2scc(C)n2c1=O [CBK287293],102,
COc1cc(-c2nccnc2N(C)Cc2ccccc2)cc(OC)c1OC [CBK037424],96.5,
Cc1cccc(C)c1NC(=O)C(C#N)C(=O)c1nn(-c2ccccc2)c2c1CSc1ccccc1-2 (stereo not shown) [CBK017678],81.8,
CC(=O)Nc1ccc(CNc2ccc(C#N)cn2)cc1 [CBK297790],97.7,
O=C(O)C1=NN(c2ccccc2)C(=O)CC1 [CBK270176],84.4,
O=C(Nc1nc(-c2ccccc2)cs1)c1ccc(Br)cc1 [CBK068003],82.4,
CCC(=O)Nc1ccc(-c2csc(N3CCC(C)CC3)n2)cc1 [CBK306490],111,
CCC(CO)Nc1cncc(-c2cccc(O)c2)n1 (stereo not shown) [CBK037777],96,
O=S(=O)(c1cc(Cl)ccc1Cl)N1CCCN(Cc2ccccc2)CC1 [CBK044491],104,
c1ccc(COc2ccccc2-c2cc(NCCc3ccccn3)ncn2)cc1 [CBK037826],102,
COc1cc(NC(=O)c2ccc3c(c2)C(=O)N(Cc2ccccc2)C3=O)c(C(=O)O)cc1OC [CBK266544],106,
COc1cccc(CN2CCN(C(=O)c3cc(C)[nH]c3C)[C@@H](C)C2)c1 [CBK284255],99.1,
COc1ccc(CSCc2n[nH]c(=O)[nH]2)cc1[N+](=O)[O-] [CBK267425],101,

Structure (SMILES),"viability at 28.5 h, 10 µM [%]","viability at 28.5 h, 10 µM (bulk resorufin, single well) [%]"
Cn1c(=O)n(Cc2ccc(Cl)cc2)c2cccnc21 [CBK282333],101,
O=S(=O)(c1ccc(Cl)cc1)N1CCN(CC(O)Cn2c3ccccc3c3ccccc32)CC1 (stereo not shown) [CBK264383],105,
COC(=O)N/N=C(/C)c1ccc(C)cc1 [CBK016149],109,
O=C(CCS(=O)(=O)c1ccccc1)Nc1c(F)cc(F)cc1OC1CCNCC1 [CBK050226T],87.4,
COC(=O)CNC(=O)c1ccc(S(=O)(=O)N2CCCC2)cc1 [CBK264880],88.4,
COc1ccc(CSc2nnc(-c3ccncc3)n2C)cc1[N+](=O)[O-] [CBK269638],87.7,
OC(COCc1ccc2c(c1)OCO2)CN1CCN(c2ccccn2)CC1 (stereo not shown) [CBK278246C],105,
CC(=O)N1CCN(c2c(-c3ccccc3)nnc3ccccc23)CC1 [CBK066889],91.2,
CCOC(=O)C1CCCN(S(=O)(=O)c2sc3ccc(Cl)cc3c2C)C1 (stereo not shown) [CBK154797],97.2,
CCCCNc1cc(N2CCOC(Cn3cc(C)cn3)C2)nc(N)n1 (stereo not shown) [CBK305417],53.3,
O=C(Nc1ccc(Cn2cncn2)cc1)C1CC2C=CC1C21CC1 (stereo not shown) [CBK281399],88.2,
Cc1onc(-c2ccccc2)c1NC(=O)Nc1cc2ccccc2c(Br)n1 [CBK105489],96.5,
O=C(c1cnc2ccccc2n1)N1CCc2ccccc21 [CBK200267],117,
Cc1cccc(-c2ccc3c(c2)C(=O)N2CC[C@H](NC(=O)c4cnccn4)[C@H]2C(=O)N3)c1C [CBK289348],87.2,
O=C(Cn1ncc2ccccc2c1=O)N1CCC(c2ccccc2)C1 (stereo not shown) [CBK281843],90.7,
Cc1noc(C)c1NC(=O)c1ccno1 [CBK200394],87,
Cc1ccc(C23CC4CC(CC(C(=O)NC(C(=O)O)C(C)C)(C4)C2)C3)cc1 (stereo not shown) [CBK264924],110,
O=C(NCCc1noc(CO)n1)N(Cc1ccsc1)C1CCCCC1 [CBK307273],98.5,
COc1ccc(C2CCCN2S(=O)(=O)c2ccccc2[N+](=O)[O-])cc1OC (stereo not shown) [CBK295309],96.1,
COc1cc(/C=N/O)ccc1Oc1ccc([N+](=O)[O-])cc1[N+](=O)[O-] [CBK261651],,92.5
CCOC(=O)C(NCCc1ccc(OC)c(OC)c1)(NC(=O)c1ccco1)C(F)(F)F (stereo not shown) [CBK013715],123,
N#Cc1[nH]nnc1-c1ccc(OC(F)(F)F)cc1 [CBK017386],95.1,

Structure (SMILES),"viability at 28.5 h, 10 µM [%]","viability at 28.5 h, 10 µM (bulk resorufin, single well) [%]"
CCN1CCN(c2c(Cl)cccc2NC(=O)c2ccc(-c3cccc([N+](=O)[O-])c3)o2)CC1 [CBK268596],86.4,
COc1ccc(-c2noc(-c3cnccn3)n2)c(OC)c1 [CBK287878],83.6,
CC(=O)Nc1ccc(-n2cc(COC3CCN(C(=O)OC(C)(C)C)CC3)nn2)cc1 [CBK149481],121,
COC(=O)c1c(NC(=S)Nc2cn(C)nc2C(N)=O)sc2c1CCCCC2 [CBK266849],93.4,
C[C@H]1CN([C@H]2C[C@@H](O)[C@@H](CO)O2)C(=O)NC1=O [CBK201206],96.9,
O=C(CCNC(Cc1ccccc1)C(=O)O)c1ccccc1 (stereo not shown) [CBK286655],83,
CS(=O)(=O)c1ccc(-c2ccc(CN3CCN(C(=O)Cc4ccc(F)cc4F)CC3)cn2)cc1 [CBK162618T],122,
CCOC(=O)C(NCc1nc(-c2cccc(C(F)(F)F)c2)no1)C(C)C (stereo not shown) [CBK305445],93,
COc1ccc(C(=O)CSc2nnc(-c3ccccc3)[nH]2)cc1[N+](=O)[O-] [CBK263299],97.4,
Cc1ccc(-c2n[nH]c(=S)n2CC(=O)N2CCC(C(=O)Nc3ccc4c(c3)OCO4)CC2)cc1 [CBK297887],82,
CC(=O)c1nnn(-c2ccc(Cl)cc2Cl)c1C [CBK085972],86.7,
Fc1ccc([C@@H]2CN(Cc3ccccn3)C[C@H]2c2cc[nH]n2)cc1 [CBK285416],104,
COc1ccc(N2CCN(c3nc(NCCO)nc(OC)n3)CC2)cc1 [CBK265478],103,
O=C(CCSCc1nc2sc3c(c2c(=O)[nH]1)CCC3)N1CCC1 [CBK304536],75.7,
CC(=O)NCCc1nc2ccccc2n1CCOc1ccc(Cl)cc1 [CBK269610],107,
CC(NC(=O)CCn1c(C(F)F)cc2cccnc21)c1ccncc1 (stereo not shown) [CBK285069],91.6,
CCn1c(CC2CCN(C(=O)CCCn3cnnn3)CC2)nn(C)c1=O [CBK306537],102,
O=C(C1c2ccccc2Oc2ccccc21)N1C2CCC1CC(O)(c1ccco1)C2 (stereo not shown) [CBK286169],93.8,
Cc1ccc(CCC(=O)Nc2ccc(S(N)(=O)=O)cc2)o1 [CBK269031],99.9,
O=C(Cc1ccc(NS(=O)(=O)c2cc(Cl)c(Cl)s2)nc1)N1CCOCC1 [CBK003790],96.5,
Cc1cccc2cc3c(nc12)OCCN(C)C3 [CBK285192],89.1,
CCOC(=O)c1ccc(N2CC(C(=O)O)CC2=O)cc1 (stereo not shown) [CBK268106],115,
